This note sets out measurements from ChEMBL document CHEMBL4145663, “Sweet Binders: Carbonic Anhydrase IX in Complex with Sucralose” (ACS Med Chem Lett, 2018).

One assay has as its target Carbonic anhydrase 9 (Homo sapiens, UniProt Q16790). Description: Binding affinity to carbonic anhydrase 9 (unknown origin) expressed in Escherichia coli BL21 (DE3).
For the next assay, the target named is Carbonic anhydrase 2 (Homo sapiens, UniProt P00918). Description: Binding affinity to carbonic anhydrase 2 (unknown origin).

In the case of `OC[C@H]1O[C@@](CO)(O[C@H]2O[C@H](CO)[C@@H](O)[C@H](O)[C@H]2O)[C@@H](O)[C@@H]1O` [SUCROSE], the inhibition constant Ki at Carbonic anhydrase 9 and on Carbonic anhydrase 2 was more than 20000 nM each time.
As for `OC[C@H]1O[C@H](O[C@]2(CCl)O[C@H](CCl)[C@@H](O)[C@@H]2O)[C@H](O)[C@@H](O)[C@H]1Cl` [SUCRALOSE], the Ki (usually the equilibrium dissociation constant of an inhibitor or competing ligand from its target) at Carbonic anhydrase 9 worked out at 2200 nM; on Carbonic anhydrase 2, 300 nM.
